From patent US20240270737A1, “SMALL MOLECULAR INHIBITORS OF STING SIGNALING COMPOSITIONS AND METHODS OF USE” (STINGINN INC., priority 2021, published 2024)

Tests used:
[1] = tested on: pIRF3, pSTING; assay: Western blot of pIRF3, pSTING, pTBK1 after ISD transfection in hTERT cells; format: cell-based, human; conditions: Homo sapiens
Procedure: FIG. 1C are photographs showing Western blot analysis of STING, phospho-TBK1 (pTBK1) and phospho-IRF3 (pIRF3) performed at 6 hours after ISD transfection with/without W1 treatment same as FIG. 1A, Mock is shown (210), ISD treatment only (220) was used as a control, according to an embodiment of the invention;
Immunoblot analysis: Equal amounts of proteins were resolved on sodium dodecyl sulfate (SDS)-Polyacrylamide gels and then transferred to polyvinylidene fluoride (PVDF) membranes (Millipore). After blocking with 5% Blocking Reagent, membranes were incubated with various primary antibodies (and appropriate secondary antibodies). The image was resolved using an enhanced chemiluminescence system ECL (Thermo Scientific) and detected by autoradiography (Kodak). Antibodies: rabbit polyclonal antibody against STING was developed in our laboratory as described previously in Ishikawa et al, 2008; other antibodies were obtained from following sources: β-actin (Sigma Aldrich), p-IRF3 (Cell Signaling), IRF3 (Santa Cruz Biotechnology), p-p65 (Cell Signaling), p65 (Cell Signaling), p-TBK1 (Cell Signaling), TBK1 (Abcam), cGAS (Cell Signaling).

[2] = tested on: IRF3 translocation induced by dsDNA (ISD); assay: IRF3 translocation inhibition, confocal/immunofluorescence after ISD transfection; format: cell-based; conditions: Homo sapiens, % means blockage of IRF3 translocation induced by dsDNA (ISD)
Procedure: Inhibition of IFNβ expression was measured by Luciferase induction at 24 hours after transfection of ISD. […]. […] FIG. 3H qPCR of IFNβ 1 performed in MEFs treated same as in FIG. 3A. FIG. 3I qPCR of CCL5 performed in MEFs treated same as in FIG. 3A.
Immunofluorescence Microscopy: Cells were cultured and treated in their appropriate media on Lab-Tek II chamber slides. Cell were fixed with 4% paraformaldehyde for 15 minutes in at 37° C. and permeabilized with 0.05% Triton X-100 for 5 minutes at room temperature. Immunostaining was performed with rabbit-anti-STING polyclonal, rabbit-anti-IRF3 (Santa Cruz Biotechnology) or rabbit-anti-p65 (Cell Signaling) followed by fluorescence conjugated secondary antibodies (FITC-goat-anti-rabbit) (Invitrogen).

[3] = tested on: IFNβ expression (type I IFNβ promoter driving luciferase); assay: IFNβ promoter luciferase assay in hTERT-pIFNβ-Glu cells transfected with ISD; format: cell-based, human; conditions: Homo sapiens
Procedure: Inhibition of IFNβ expression was measured by Luciferase induction at 24 hours after transfection of ISD, DMSO is shown (230), ISD treatment only (220) was used as a control, according to an embodiment of the invention;
Inhibition of IFNβ expression was measured by Luciferase induction at 24 hours after transfection of ISD, Mock is shown (210), ISD treatment only (220) was used as a control, according to an embodiment of the invention;
Identification of small molecule inhibitors of STING. In the presence of cytosolic DNA species, STING becomes activated to drive the transcription of cytokines such as type I IFN. Compounds binding to STING via TSA were subsequently examined for their ability to prevent cytosolic DNA species from activating the type I interferon (IFN) promoter, using a live cell assay. This assay comprised immortalized human fibroblasts (hTERT) that were stably transfected with the type I IFN promoter driving luciferase as well as the CMV promoter driving SEAP (hTERT-pIFNβ-Glu). The live cell assay has previously been disclosed in PCT/US2019/025380 entitled IFN-Beta Reporter System for Immortalized Primary Cells inventor Glen N. Barber, which was filed Apr. 2, 2018 and published as WO2019195285, and which is herein incorporated by reference in its entirety and for all purposes. The ability of the small molecules to prevent activation of the type I IFN promoter and the transcription of luciferase, but not SEAP in response to cytosolic DNA species was assessed. The activation of STING, typically by CDNs, in turn activates the transcription factors NF-κB and IRF3, both of which are required to induce the transcriptional stimulation of the Type I IFN promoter, but not the CMV promoter as IRF3 and NF-kB transcription factor binding sites are not contained in the CMV promoter. The assay identified the small molecule Compound W1 in the first screen (HTS), where the level of luciferase was not able to activate the type I IFN promoter or induce the expression of luciferase (see Table I and Table II).
Inhibition of IFNβ expression was measured by Luciferase induction at 24 hours after transfection of ISD. ISD only treatment was used as control.
Inhibition of IFNβ expression was measured by Luciferase induction at 24 hours after transfection of ISD, Mock is shown (210), ISD treatment only (220) was used as a control.
Luciferase assay: hTERT-BJ1 Telomerase Fibroblasts stably expressing the luciferase gene under the control of the interferon-beta promoter and SEAP gene under control of the CMV promoter) (hTERT-pIFNβ-Glu) were generated by the Barber laboratory. Luciferase assay was performed using Secrete-Pair Dual Luminescence Assay Kit from GeneCopoeia following the manufacturer's protocol.

How did the inhibition at 10 µM [1] turn out when `COc1ccc(-c2nc(CN3CCN(c4cc(C)nc(N(C)C)n4)CC3)cs2)cc1OC` [Compound W3, 4-(4-{[2-(3,4-dimethoxyphenyl)-1,3-thiazol-4-yl]methyl}piperazin-1-yl)-N,N,6-trimethylpyrimidin-2-amine] was run?
The inhibition at 10 µM was 40 to 50%.

And the inhibition at 25 µM [2]?
Its inhibition at 25 µM is 40 to 50%.

What about the inhibition at 5 µM [3] of the same compound?
Its inhibition at 5 µM is -37%.

What does the source list for `Cc1cc(N2CCN(Cc3csc(-c4ccc(Cl)cc4)n3)CC2)nc(N(C)C)n1` [Compound W14, 4-(4-{[2-(4-chlorophenyl)-1,3-thiazol-4-yl]methyl}piperazin-1-yl)-N,N,6-trimethylpyrimidin-2-amine]?
inhibition at 10 µM [1]: 90 to 100%; inhibition at 25 µM [2]: ~70%; inhibition at 5 µM [3]: 42%

With `COc1ccc(-c2nc(CN3CCN(c4nc(C)nc(N(C)C)n4)CC3)cs2)cc1OC` [Compound W4, 4-(4-{[2-(3,4-dimethoxyphenyl)-1,3-thiazol-4-yl]methyl}piperazin-1-yl)-N,N,6-trimethyl-1,3,5-triazin-2-amine] as the compound, how does the inhibition at 10 µM [1] read?
The inhibition at 10 µM was less than 10%.

And the inhibition at 5 µM [3]?
The inhibition at 5 µM was 4%.

Which results are given for `Cc1cc(N2CCN(Cc3csc(-c4ccc(C(F)(F)F)cc4)n3)CC2)nc(N(C)C)n1` [Compound W11, N,N,4-trimethyl-6-[4-({2-[4-(trifluoromethyl)phenyl]-1,3-thiazol-4-yl}methyl)piperazin-1-yl]pyrimidin-2-amine]?
inhibition at 10 µM [1]: 90 to 100%; inhibition at 25 µM [2]: 90 to 100%; inhibition at 5 µM [3]: 38%

What does the source list for `Cc1cc(N2CCN(Cc3cnc(-c4ccccc4)s3)CC2)nc(N(C)C)n1` [Compound W19, N,N,4-trimethyl-6-{4-[(2-phenyl-1,3-thiazol-5-yl)methyl]piperazin-1-yl}pyrimidin-2-amine]?
inhibition at 10 µM [1]: < 10%; inhibition at 5 µM [3]: 76%

What does the source list for `COc1ccc(-c2nc(CN3CCN(c4nc(C)cc(C(C)C)n4)CC3)cs2)cc1OC` [Compound W5, 2-(4-{[2-(3,4-dimethoxyphenyl)-1,3-thiazol-4-yl]methyl}piperazin-1-yl)-4-methyl-6-(propan-2-yl)pyrimidine]?
inhibition at 10 µM [1]: < 10%; inhibition at 5 µM [3]: 18%

Which results are given for `CCc1ccc(-c2nc(CN3CCN(c4cc(C)nc(N(C)C)n4)CC3)cs2)cc1` [Compound W15]?
inhibition at 10 µM [1]: 90 to 100%; inhibition at 25 µM [2]: 90 to 100%; inhibition at 5 µM [3]: 69%

For `Cc1cc(N2CCN(Cc3ncc(-c4ccccc4)s3)CC2)nc(N(C)C)n1` [Compound W20, N,N,4-trimethyl-6-{4-[(5-phenyl-1,3-thiazol-2-yl)methyl]piperazin-1-yl}pyrimidin-2-amine], which inhibition at 10 µM [1] is on record?
Its inhibition at 10 µM is less than 10%.

And the inhibition at 25 µM [2]?
The inhibition at 25 µM was 40 to 50%.

What about the inhibition at 5 µM [3] of the same compound?
The inhibition at 5 µM was 79%.

Which inhibition at 10 µM [1] does the source give for `COc1ccc(-c2nc(CN3CCN(c4cc(C)nc(N(C)C)n4)CC3)cs2)c(OC)c1` [Compound W13, 4-(4-{[2-(2,4-dimethoxyphenyl)-1,3-thiazol-4-yl]methyl}piperazin-1-yl)-N,N,6-trimethylpyrimidin-2-amine] here?
Its inhibition at 10 µM is 90 to 100%.

What about the inhibition at 25 µM [2] of the same compound?
The inhibition at 25 µM was 40 to 50%.

And the inhibition at 5 µM [3]?
The inhibition at 5 µM was 30%.
